# Test results from patent US8236820B2, “Anti-inflammatory compounds and uses thereof” (priority 2007, dated 2012).
# How the values were obtained:
# HT29 = assay: Cell viability (MTT) assay, 24-h IC50, HT29; format: cell-based, human; settings: Homo sapiens, HT-29, 24 h, read-out: 24-h IC50
# SW480 cells = assay: Polyamine levels in SW480 cells; format: cell-based, human
# Text: Further evidence of the synergy between the two compounds was provided by their effect on polyamine levels. Conventional sulindac is known to reduce polyamine levels in colon cancer cells (Yerushalmi et al. Role of polyamines in arginine-dependent colon carcinogenesis in Apc(Min) (/+) mice. Mol Carcinog 2006; 45(10):764-73.; Choi et al. Combination of 5-fluorouracil and N1,N11-diethylnorspermine markedly activates spermidine/spermine N1-acetyltransferase expression, depletes polyamines, and synergistically induces apoptosis in colon carcinoma cells. J Biol Chem 2005; 280(5):3295-304; and Basuroy and Gerner. Emerging concepts in targeting the polyamine metabolic pathway in epithelial cancer chemoprevention and chemotherapy. J Biochem (Tokyo) 2006; 139(1):27-33).
# [1] = test system: spermidine/spermine N^1-acetyltransferase (SSAT); assay: SSAT enzymatic activity in HT-29 cells; format: cell-based, human; settings: HT-29, 24 h; phospho-sulindac I 85 μM; P<0.05 versus control
# Method: SW480 cells were incubated without or with phospho-sulindac I (P-S) for up to 24 h and SSAT activity was determined at each time point by determining the amount of labelled N1-acetylspermidine synthesized from [^14C]acetyl-CoA and unlabeled spermidine.
# The effect of phospho-sulindac I on polyamines is mediated, at least in part, by activation of SSAT by phospho-sulindac I. It is known that conventional sulindac induces SSAT activity (Babbar et al., Cyclooxygenase-independent induction of apoptosis by sulindac sulfone is mediated by polyamines in colon cancer. J Biol Chem 2003; 278(48):47762-75.). Incubation of HT-29 and SW480 cells with 85 μM phospho-sulindac I for 24 h leads to a 3- and 4.4-fold increase of SSAT activity (P<0.05 versus control), respectively. On the other hand, incubation with sulindac led to a 1.5 and 2.5-fold increase of SSAT activity (P<0.05 versus control) in HT-29 and SW480 cells, respectively.
# [2] = test system: SW480 and HT-29 human colon cancer cells; assay: Cell kinetics of colon cancer cells treated with phospho-sulindac I; format: cell-based
# Method: Cell proliferation assay: To determine cell proliferation, we measured the incorporation of 5-bromo-2′-deoxyuridine (BrdU) into newly synthesized cellular DNA, following the manufacture's instructions (BD Biosciences, San Jose, Calif.).
# Annexin V and propidium iodide (PI) staining: Cells were seeded at a density of 1×10^5 cells/well and treated for 24 h with various concentrations of each compound or equivalent volumes of DMSO. Briefly, after incubation with the test compounds, cells were trypsinized and stained with Annexin V-FITC (Invitrogen) and PI (0.5 μg/ml). Following incubation at room temperature for 15 min in the dark, annexin V-FITC and PI fluorescence intensities were analyzed by FACScaliber (BD Bioscience). Annexin V (+)/PI (−) cells are in early apoptosis, annexin V (+)/PI (+) cells are in late apoptosis (secondary necrosis), and annexin V (−)/ PI (+) cells are necrotic cells.
# Determination of cell cycle phase distribution (PI incorporation assay): Cells were seeded in culture plates and treated for 24 h with various concentrations of each compound or equivalent volumes of DMSO. After treatment, cells were trypsinized and fixed in 70% ethanol for 1 h on ice, stained with PI (50 μg/ml) and RNase A (4 U/ml) for 30 min and subjected to flow cytometric analysis for the determination of their distribution in the cell cycle phases.
# [3] = format: in vivo; settings: 5 days oral gavage
# Method: Phospho-sulindac I lacked gastrointestinal toxicity in mice; gastrointestinal toxicity is the major side effect of sulindac as well as of the entire class of NSAIDs. We evaluated in mice the potential toxicity of phospho-sulindac I. Three groups, each consisting of 8 female C57BL/6J+/+mice 6 wks of age, were treated for 5 days by oral gavage with equimolar amounts of phospho-sulindac I (317 mg/kg/d) or conventional sulindac (200 mg/kg/day) or vehicle. Mice were weighed at time 0 and on days 3 and 5. Mice surviving to the end of the study were euthanized and necropsied.
# The stomachs of sulindac-treated animals were larger than those of the other two groups and in some the liver appeared hyperemic.
# BxPC-3 = assay: Cell viability (MTT) assay, 24-h IC50, BxPC-3; settings: Homo sapiens, BXPC-3, 24 h, read-out: 24-h IC50
# Method: Cells were incubated at 37° C. in 5% CO2. Cells were seeded at 5.5×10^4 cells/cm^2, allowed to attach overnight, and the following morning cells were treated with each of the test compounds.
# Cell viability assay: We used an assay based on the reduction of 3-(4,5-dimethylthiazol-2-yl)-2,5-diphenyltetrazolium bromide dye (MTT), which was determined according to the manufacture's protocol (Promega, Madison, Wis., USA).
# SW480 = assay: DFMO / phospho-sulindac I synergy, cell growth at 48 h, SW480; format: cell-based, human; settings: SW480, 48 h; DFMO 5 mM, phospho-sulindac I 40 μM
# Method: A—Left panel: Cell viability was determined in HT-29 (full bars) and SW-480 (empty bars) cells after 48 h of incubation with 5 mM DFMO, 40 μM phospho-sulindac (P-S) or simultaneous combination of DFMO and P-S. Data are expressed as percentage of control cells (cells incubated only with DMSO). […] Right panel: In this isobologram the additivity line connects the IC50 value of each compound used alone. A and B represent two different dose pairs of each compound (their respective concentrations are shown in parentheses). The location of both A and B below the additivity line signifies synergy. […] DNA content was determined from propidium iodide (PI) fluorescence. C—Apoptosis and necrosis were determined by combined staining with annexin V and PI and determining fluorescence intensity. The percentages of apoptotic cells were determined using the dual staining with annexin V and propidium iodide and are indicated in each quadrant: left bottom quadrant, viable cells (annexin V-negative/PI-negative); right bottom quadrant, early apoptotic cells (annexin V-positive/PI-negative); right upper quadrant, late apoptotic cells (annexin V-positive/PI-positive); left upper quadrant, necrotic cells (annexin V-negative, PI-positive). […]
# [4] = 24 h at its 24-h IC50, vs untreated controls
compound,measurement,setting,value
CCOP(=O)(OCC)OCCCCOC(=O)CC1=C(C)/C(=C/c2ccc([S+](C)[O-])cc2)c2ccc(F)cc21 (stereo not drawn) [Phospho-sulindac I],IC50,HT29,65 µM
same,level of putrescine,SW480 cells,91 % of control values
same,level of spermidine,SW480 cells,34 % of control values
same,level of spermine,SW480 cells,9 % of control values
same,increase of SSAT activity,[1],3 fold
same,effect on G1 to S cell cycle phase transition,[2]; 24 h at its 24-h IC50,blocked the transition form the G1 to the S cell cycle phase
same,induced apoptosis (early and late subtypes combined),[2]; [4],201%
same,induced necrosis,[2]; [4],1350%
same,inhibited cell proliferation,[2]; [4],72%
same,necrosis in treated cells,"[2]; 24 h at its 24-h IC50, controls 0.2%",2.9%
same,apoptosis (early and late combined) in treated cells,"[2]; 24 h at its 24-h IC50, controls 6.6%",20%
same,cell proliferation in treated cells,"[2]; 24 h at its 24-h IC50, controls 43%",12%
same,"inspection of the heart, lungs, spleen, kidneys and liver",[3]; 317 mg/kg/d,no abnormalities
same,gastrointestinal or other toxicity (necropsy),"[3]; phospho-sulindac I 317 mg/kg/d, sulindac 200 mg/kg/day",no evidence of gastrointestinal or other toxicity
same,mortality,"[3]; phospho-sulindac I 317 mg/kg/d, sulindac 200 mg/kg/day, 8 mice/group",0%
same,body weight at end of study,"[3]; phospho-sulindac I 317 mg/kg/d, sulindac 200 mg/kg/day, start 16.3±1.2, mean±SD",15.7 ± 1.2 g
same,IC50,BxPC-3,62 µM
same,reduction in cell number,SW480,45%
